Measured values taken from PubChem BioAssay (NCI).
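How tested: cells in 96-well plates exposed to compound for 48 hours at five concentrations. The concentration for 50% growth inhibition is given as GI50. TGI: total growth inhibition.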

Columns and labels:
Assay in all cases: NCI tumour cell line growth inhibition, 48 h
TK-10 renal = tested on: TK-10 renal
A498 renal = tested on: A498 renal
U251 CNS = tested on: U251 CNS
786-0 renal = tested on: 786-0 renal
NCI-H23 lung = tested on: NCI-H23 lung
MCF7 breast = tested on: MCF7 breast
UO-31 renal = tested on: UO-31 renal
A549 NSCLC = tested on: A549 NSCLC
SK-MEL-28 melanoma = tested on: SK-MEL-28 melanoma
SK-MEL-2 melanoma = tested on: SK-MEL-2 melanoma

COc1cc(/C=C\c2cc(OC)c(OC)c(OC)c2)cc(N/C=C\C(=O)c2ccc(OC(F)(F)F)cc2)c1OC
GI50 (TK-10 renal): 4.79 µM
TGI (TK-10 renal): > 100 µM
GI50 (A498 renal): 1830 nM
TGI (A498 renal): 7.59 µM
GI50 (U251 CNS): 3.46 µM
TGI (U251 CNS): > 100 µM
GI50 (786-0 renal): 4.34 µM
TGI (786-0 renal): > 100 µM
GI50 (NCI-H23 lung): 4.38 µM
TGI (NCI-H23 lung): > 100 µM
GI50 (MCF7 breast): 4.08 µM
TGI (MCF7 breast): > 100 µM
GI50 (UO-31 renal): 5.42 µM
TGI (UO-31 renal): > 100 µM
GI50 (A549 NSCLC): 4.54 µM
TGI (A549 NSCLC): > 100 µM
GI50 (SK-MEL-28 melanoma): 10.4 µM
TGI (SK-MEL-28 melanoma): > 100 µM

O=C(/C=C/c1cc(Cl)cc(Cl)c1O)c1cccc(O)c1
TGI (TK-10 renal): > 100 µM
TGI (A498 renal): > 100 µM
TGI (U251 CNS): 80.4 µM
TGI (786-0 renal): > 100 µM
TGI (NCI-H23 lung): > 100 µM
TGI (SK-MEL-2 melanoma): 61.7 µM
TGI (UO-31 renal): > 100 µM
TGI (A549 NSCLC): > 100 µM
TGI (SK-MEL-28 melanoma): > 100 µM

COC(=O)CCC(NC(=S)N/N=C(\C)c1cnc2ccccc2n1)C(=O)OC (centres undefined)
TGI (TK-10 renal): > 100 µM
TGI (A498 renal): > 100 µM
TGI (U251 CNS): > 100 µM
TGI (786-0 renal): > 100 µM
TGI (NCI-H23 lung): > 100 µM
TGI (SK-MEL-2 melanoma): > 100 µM
TGI (UO-31 renal): > 100 µM
TGI (A549 NSCLC): > 100 µM
TGI (SK-MEL-28 melanoma): > 100 µM

COC[C@@H](N=C1NC(=O)/C(=C/c2ccc3ncccc3c2)S1)c1ccccc1
GI50 (A498 renal): 4250 nM
TGI (A498 renal): 12.5 µM
GI50 (U251 CNS): 4.32 µM
TGI (U251 CNS): > 25 µM
GI50 (786-0 renal): 10.2 µM
TGI (786-0 renal): > 25 µM
GI50 (NCI-H23 lung): 11.5 µM
TGI (NCI-H23 lung): > 25 µM
GI50 (MCF7 breast): 7.24 µM
TGI (MCF7 breast): > 25 µM
GI50 (SK-MEL-2 melanoma): 8.19 µM
TGI (SK-MEL-2 melanoma): 17.2 µM
GI50 (UO-31 renal): 6.7 µM
TGI (UO-31 renal): > 25 µM
GI50 (A549 NSCLC): 6.72 µM
TGI (A549 NSCLC): > 25 µM
GI50 (SK-MEL-28 melanoma): 18.8 µM
TGI (SK-MEL-28 melanoma): > 25 µM

COC(=O)C(C(=O)C(=O)Nc1c(C)cccc1C)c1cnc2ccccc2n1 (centres undefined)
TGI (TK-10 renal): > 100 µM
TGI (A498 renal): > 100 µM
TGI (U251 CNS): > 100 µM
TGI (786-0 renal): > 100 µM
TGI (NCI-H23 lung): > 100 µM
TGI (SK-MEL-2 melanoma): > 100 µM
TGI (UO-31 renal): > 100 µM
TGI (A549 NSCLC): > 100 µM
TGI (SK-MEL-28 melanoma): > 100 µM

O=C(N/C(=C\c1ccc(Cl)cc1)c1nc2ccccc2[nH]1)c1ccccc1
TGI (TK-10 renal): 63.8 µM
TGI (A498 renal): 52.4 µM
TGI (U251 CNS): 53.1 µM
TGI (786-0 renal): 43.9 µM
TGI (NCI-H23 lung): 42.9 µM
TGI (SK-MEL-2 melanoma): 42.2 µM
TGI (UO-31 renal): 42.2 µM
TGI (A549 NSCLC): 56.1 µM
TGI (SK-MEL-28 melanoma): 36.4 µM

Cc1nc(-n2nc(-c3ccccc3)cc2-c2ccccc2)sc1C(=O)/C=C/c1ccc(/C=C/C(=O)c2sc(-n3nc(-c4ccccc4)cc3-c3ccccc3)nc2C)cc1
TGI (TK-10 renal): 87.6 µM
TGI (U251 CNS): 34.3 µM
TGI (786-0 renal): 33.4 µM
TGI (NCI-H23 lung): 35.3 µM
TGI (SK-MEL-2 melanoma): 51.8 µM
TGI (UO-31 renal): 42 µM
TGI (A549 NSCLC): > 100 µM
TGI (SK-MEL-28 melanoma): 41.8 µM

COc1ccc(NC(=O)C(=O)c2c(O)c3ccc(O)cc3oc2=O)c([N+](=O)[O-])c1
TGI (TK-10 renal): > 100 µM
TGI (A498 renal): > 100 µM
TGI (786-0 renal): > 100 µM
TGI (NCI-H23 lung): > 100 µM
TGI (SK-MEL-2 melanoma): > 100 µM
TGI (UO-31 renal): > 100 µM
TGI (A549 NSCLC): > 100 µM
TGI (SK-MEL-28 melanoma): > 100 µM

Cc1nc2ccc(Nc3nc(Cl)nc(N4CCOCC4)n3)cc2n1Cc1ccccc1
GI50 (TK-10 renal): 35.8 µM
TGI (TK-10 renal): > 100 µM
GI50 (A498 renal): 2850 nM
TGI (A498 renal): > 100 µM
GI50 (786-0 renal): 11.7 µM
TGI (786-0 renal): > 100 µM
GI50 (NCI-H23 lung): 1.94 µM
TGI (NCI-H23 lung): 3.92 µM
GI50 (MCF7 breast): 18.4 µM
TGI (MCF7 breast): > 100 µM
GI50 (SK-MEL-2 melanoma): 3.54 µM
TGI (SK-MEL-2 melanoma): 26 µM
GI50 (UO-31 renal): 8.89 µM
TGI (UO-31 renal): > 100 µM
GI50 (A549 NSCLC): 50.3 µM
TGI (A549 NSCLC): > 100 µM
GI50 (SK-MEL-28 melanoma): 1.75 µM
TGI (SK-MEL-28 melanoma): 3.29 µM

CCC(C)CCOC(=O)c1ccc(N=Cc2ccc(C=Nc3ccc(C(=O)OCCC(C)CC)cc3)cc2)cc1 (centres undefined)
TGI (A498 renal): > 100 µM
TGI (U251 CNS): > 100 µM
TGI (786-0 renal): > 100 µM
TGI (NCI-H23 lung): > 100 µM
TGI (SK-MEL-2 melanoma): > 100 µM
TGI (UO-31 renal): > 100 µM
TGI (A549 NSCLC): > 100 µM
TGI (SK-MEL-28 melanoma): > 100 µM

CC(C)C1=CC(=O)C(C)(C2C(O)CC3(C)C4CC=C5C(CCC(OC6OC(CO)C(O)C(O)C6OC6OC(C)C(O)C(O)C6O)C5(C)C)C4(C)C(=O)CC23C)O1 (centres undefined)
TGI (A498 renal): > 100 µM
TGI (U251 CNS): > 100 µM
TGI (786-0 renal): > 100 µM
TGI (NCI-H23 lung): > 100 µM
TGI (MCF7 breast): > 100 µM
TGI (UO-31 renal): > 100 µM
TGI (A549 NSCLC): > 100 µM
TGI (SK-MEL-28 melanoma): > 100 µM

Cc1c(Cl)cccc1NC(=O)C(=O)C(C(=O)c1ccccc1-c1ccccc1)C1OC(=O)c2ccccc21 (centres undefined)
TGI (TK-10 renal): 57.6 µM
TGI (U251 CNS): 29.2 µM
TGI (786-0 renal): 33.3 µM
TGI (NCI-H23 lung): 30.3 µM
TGI (SK-MEL-2 melanoma): 32.6 µM
TGI (UO-31 renal): 49.4 µM
TGI (A549 NSCLC): 66.8 µM
TGI (SK-MEL-28 melanoma): 44.7 µM

O=C1NC(Cc2ccc(O)cc2)C(=O)N2CCCC12 (centres undefined)
TGI (TK-10 renal): > 100 µM
TGI (A498 renal): > 100 µM
TGI (U251 CNS): > 100 µM
TGI (786-0 renal): > 100 µM
TGI (SK-MEL-2 melanoma): > 100 µM
TGI (UO-31 renal): > 100 µM
TGI (A549 NSCLC): > 100 µM
TGI (SK-MEL-28 melanoma): > 100 µM

COC(=O)C1CCc2c1c(=O)n1c([nH]c3ccccc31)c2C#N (centres undefined)
TGI (TK-10 renal): > 100 µM
TGI (A498 renal): > 100 µM
TGI (U251 CNS): > 100 µM
TGI (786-0 renal): > 100 µM
TGI (NCI-H23 lung): > 100 µM
TGI (SK-MEL-2 melanoma): > 100 µM
TGI (UO-31 renal): > 100 µM
TGI (A549 NSCLC): > 100 µM
TGI (SK-MEL-28 melanoma): > 100 µM

CN1c2ccccc2N(C(=O)c2ccc([N+](=O)[O-])cc2)C(CC(=O)O)c2cccn21 (centres undefined)
TGI (TK-10 renal): > 100 µM
TGI (A498 renal): > 100 µM
TGI (786-0 renal): > 100 µM
TGI (NCI-H23 lung): > 100 µM
TGI (SK-MEL-2 melanoma): > 100 µM
TGI (UO-31 renal): > 100 µM
TGI (A549 NSCLC): > 100 µM
TGI (SK-MEL-28 melanoma): > 100 µM

N.N.N.N.N.[Co+3].[I-].[N-]=[N+]=[N-]
GI50 (TK-10 renal): > 100 µM
TGI (TK-10 renal): > 100 µM
GI50 (A498 renal): > 100000 nM
TGI (A498 renal): > 100 µM
GI50 (U251 CNS): > 100 µM
TGI (U251 CNS): > 100 µM
GI50 (786-0 renal): > 100 µM
TGI (786-0 renal): > 100 µM
GI50 (NCI-H23 lung): > 100 µM
TGI (NCI-H23 lung): > 100 µM
GI50 (SK-MEL-2 melanoma): > 100 µM
TGI (SK-MEL-2 melanoma): > 100 µM
GI50 (UO-31 renal): > 100 µM
TGI (UO-31 renal): > 100 µM
GI50 (A549 NSCLC): > 100 µM
TGI (A549 NSCLC): > 100 µM
GI50 (SK-MEL-28 melanoma): > 100 µM
TGI (SK-MEL-28 melanoma): > 100 µM

O=C(Nc1ccc2[nH]nc(-c3ccncc3)c2c1)[C@@H]1CCN(CC(=O)N2CCN(c3ccc(-c4ncccn4)cc3)CC2)C1
GI50 (A498 renal): 77.8 nM
TGI (A498 renal): 0.533 µM
GI50 (U251 CNS): 0.613 µM
TGI (U251 CNS): 18.9 µM
GI50 (786-0 renal): 47.4 µM
TGI (786-0 renal): > 100 µM
GI50 (NCI-H23 lung): 0.0991 µM
TGI (NCI-H23 lung): > 100 µM
GI50 (MCF7 breast): > 100 µM
TGI (MCF7 breast): > 100 µM
GI50 (SK-MEL-2 melanoma): 0.0269 µM
TGI (SK-MEL-2 melanoma): 0.223 µM
GI50 (A549 NSCLC): 5.09 µM
TGI (A549 NSCLC): > 100 µM

Cc1ccc(S(=O)(=O)OCCn2cnc3nc(NC(=O)c4ccccc4)[nH]c(=O)c32)cc1
TGI (TK-10 renal): > 100 µM
TGI (A498 renal): > 100 µM
TGI (U251 CNS): > 100 µM
TGI (786-0 renal): > 100 µM
TGI (SK-MEL-2 melanoma): > 100 µM
TGI (UO-31 renal): > 100 µM
TGI (A549 NSCLC): > 100 µM
TGI (SK-MEL-28 melanoma): > 100 µM

CCCCCN(CCCCC)C(=O)[C@@H](CCC(=O)O)NC(=O)c1cc2ccccc2[nH]1
TGI (TK-10 renal): > 100 µM
TGI (A498 renal): > 100 µM
TGI (U251 CNS): 78.1 µM
TGI (786-0 renal): > 100 µM
TGI (NCI-H23 lung): 58 µM
TGI (SK-MEL-2 melanoma): 62.2 µM
TGI (UO-31 renal): 79.9 µM
TGI (A549 NSCLC): > 100 µM
TGI (SK-MEL-28 melanoma): 57.5 µM
